Where two headings read alike, the source gives them in different places.
What was measured:
[1] = 30 μmol/kg i.p. at 1 h; reported previously (footnote e); cited from earlier work
[2] = assay type: in vivo, mice; details: for no. of survivors / body weight / kidney weight / plasma urea N: protocol IA: 100 μmol/kg × 2 daily
Method: The test of acute toxicity of these novel ligands was carried out as follows. […] The ligand was dissolved in 0.5 to 1.0 ml of saline at pH 7 to 8. After a period of observation, the mice were killed, selected tissues were removed and fixed for histopathological examination,and unusual findings at autopsy were recorded.

[3] = 6 d, two moribund mice autopsied on d 3

Row | SMILES | 238Pu excreta: feces and GI contents [1] | 238Pu excreta: urine 0-24 h [1] | 238Pu in kidneys at 24 h [1] | 238Pu in liver at 24 h [1] | 238Pu in skeleton at 24 h [1] | 238Pu in soft tissue at 24 h [1] | 238Pu in whole body at 24 h [1] | also measured
1 | O=C(NCCCN(CCCCN(CCCNC(=O)c1cccc(=O)n1O)C(=O)c1cccc(=O)n1O)C(=O)c1cccc(=O)n1O)c1cccc(=O)n1O [3,4,3-LI(1,2-HOPO)] | 57% of injected ^238 Pu | 23% of injected ^238 Pu | 0.2% of injected ^238 Pu | 8.9 ± 1.7% of injected ^238 Pu | 7.5 ± 0.7% of injected ^238 Pu | 1.6 ± 0.6% of injected ^238 Pu | 18 ± 1.7% of injected ^238 Pu | –
2 | O=C(NCCCCN(CCCNC(=O)c1cccc(=O)n1O)C(=O)c1cccc(=O)n1O)c1cccc(=O)n1O [3,4-LI(1,2-HOPO)] | 58% of injected ^238 Pu | 7.9% of injected ^238 Pu | 0.6% of injected ^238 Pu | 18 ± 4.8% of injected ^238 Pu | 9.9 ± 3.6% of injected ^238 Pu | 5.8 ± 1.3% of injected ^238 Pu | 34 ± 9.2% of injected ^238 Pu | –
3 | Cn1ccc(C(=O)NCCCNC(=O)c2ccn(C)c(=O)c2O)c(O)c1=O [3-LI-Me-3,2-HOPO, 1,3-bis[(3-hydroxy-1-methyl-2-oxo-1,2-dihydropyridin-4-yl)carboxamido] propane] | – | – | – | – | – | – | – | toxicity / mortality (in words) ([2]; mouse, in vivo): all mice were dead by d 3; no. of survivors ([2]; 6 d, of 10 mice): 0; body weight [2, 3]: 89 ± 4 percent control; kidney weight [2, 3]: 222 ± 29 percent control; plasma urea N [2, 3]: > 1800 percent control
4 | Cn1ccc(C(=O)NCCCCCCNC(=O)c2ccn(C)c(=O)c2O)c(O)c1=O [6-LI-Me-3,2-HOPO, 1,6-bis[(3-hydroxy-1-methyl-2-oxo-1,2-dihydropyridin-4-yl)carboxamido]hexane] | – | – | – | – | – | – | – | body weight ([2]; 3 d, mean ± SD): 83 ± 3 percent control; kidney weight ([2]; 3 d, mean ± SD): 132 ± 11 percent control; plasma urea N ([2]; 3 d, mean ± SD): 343 ± 140 percent control; no. of survivors ([2]; 3 d, of 5 mice): 5; body weight ([2]; 11 d, mean ± SD): 101 ± 5 percent control; kidney weight ([2]; 11 d, mean ± SD): 112 ± 13 percent control; plasma urea N ([2]; 11 d, mean ± SD): 92 ± 6 percent control; no. of survivors ([2]; 11 d, of 5 mice): 3
5 | CC(=O)N(O)CCCCCNC(=O)CCC(=O)N(O)CCCCCNC(=O)CCC(=O)N(O)CCCCCN [DFO, desferrioxamine B] | 15.1% of injected ^238 Pu | 38% of injected ^238 Pu | 1.8% of injected ^238 Pu | 19 ± 13% of injected ^238 Pu | 20 ± 11% of injected ^238 Pu | 4.5 ± 1.4% of injected ^238 Pu | 45 ± 2.5% of injected ^238 Pu | –

— patent publication US5892029A, “3-hydroxy-2(1H)-pyridinone chelating agents” (priority 1997, dated 1999)
